Key:
[1] = species: Cavia porcellus; test: Compound was evaluated for antagonism of LTB4 effect on guinea pig lung strip contraction; format: functional
[2] = molecular target: Leukotriene B4 receptor (Homo sapiens, UniProt Q9NPC1+Q15722); test: LTB4-induced up-regulation of CD11b/CD18 in human neutrophils; format: functional
[3] = molecular target: Leukotriene B4 receptor 1 (Homo sapiens, UniProt Q15722); test: Binding affinity against human neutrophil Receptor.
Leukotriene B4 receptor 1, sequence (Q15722 whole entry): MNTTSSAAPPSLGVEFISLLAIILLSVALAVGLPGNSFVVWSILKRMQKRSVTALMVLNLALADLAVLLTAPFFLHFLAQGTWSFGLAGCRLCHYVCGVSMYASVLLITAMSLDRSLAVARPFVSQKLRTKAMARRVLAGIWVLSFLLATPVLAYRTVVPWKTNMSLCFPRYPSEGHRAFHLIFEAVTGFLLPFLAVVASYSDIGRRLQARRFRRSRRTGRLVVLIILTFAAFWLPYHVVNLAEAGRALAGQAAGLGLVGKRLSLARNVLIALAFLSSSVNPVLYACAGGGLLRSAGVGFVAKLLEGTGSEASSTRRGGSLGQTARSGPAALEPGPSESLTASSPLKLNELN

Row | IC50 [2] [nM] | Ki [3] [nM] | Compound | Kb [1] [nM]
1 |  |  | CCCCc1cc(CC)c(OCCCCCC(C)(C)c2nn[nH]n2)cc1O | 53
2 |  |  | CCOc1cc(CC)c(OCCCCCC(C)(C)c2nn[nH]n2)cc1O | 264
3 | 878 | 28.4 | CCCCCCc1cc(CC)c(OCCCCCC(C)(C)c2nn[n-]n2)cc1O.[Na+] | 688
4 |  | 5.53 | CCCc1cc(CC)c(OCCCCCC(C)(C)c2nn[nH]n2)cc1O | 34
5 |  |  | CCc1cc(OC)c(O)cc1OCCCCCC(C)(C)c1nn[nH]n1 | 222
6 | 179 | 5.14 | CCc1cc(CC)c(OCCCCCC(C)(C)c2nn[n-]n2)cc1O.[Na+] | 167
7 |  |  | CCCCCOc1cc(CC)c(OCCCCCC(C)(C)c2nn[nH]n2)cc1O | 216
